Experimental data published in paper PMC6017655, “In Silico and in Vitro-Guided Identification of Inhibitors of Alkylquinolone-Dependent Quorum Sensing in Pseudomonas aeruginosa” (Molecules : A Journal of Synthetic Chemistry and Natural …, 2018).

Assays:
Format in all cases: cell-based, Pseudomonas aeruginosa
[1] = tested on: PqsR (pqsA promoter, PAO1-L mCTX::PpqsA-lux); experiment: Whole cell biosensor reporter assay, PAO1-L mCTX::PpqsA-lux; details: Pseudomonas aeruginosa, PAO1, read-out: PAO1-L Remaining Activity %
Method: (§1) To determine the ability of the quinolines to inhibit PqsR functionality, the P. aeruginosa biosensor strains, PAO1-L and PA14, incorporating a chromosomal mCTX::PpqsA-lux transcriptional fusion, were used. These report on the activation of the pqsA promoter, regulated by PqsR [25]. PAO1-L and PA14 were chosen because they are genetically amenable and belong to the two major P. aeruginosa genomic groups. The quinolone compounds were incubated with the corresponding strain, and luminescence and optical density readings were recorded to monitor the effect of the quinolines on PqsR activity and bacterial growth, respectively. The compounds were screened at 10 µM concentration, and the activity was compared to a control of DMSO (0.1%) (Figure 3a). To be considered a hit, a threshold of at least 50% inhibition of the test compound, relative to the negative control had to be reached, without affecting bacterial growth. […] Concentration-response experiments were then carried out to determine the IC50 values (Figure 3b,c), which are summarised in Table 1.
(§2) Strains PA14 mCTX::PpqsA-lux and PAO1-L mCTX::PpqsA-lux were constructed using plasmid mini-CTX::PpqsA-lux, as previously described, and the assay was performed according to a published protocol. For screening, the compounds were tested at a concentration of 10 µM, which was prepared from a 10 mM stock, in DMSO.

[2] = tested on: PqsR (pqsA promoter, PA14 mCTX::PpqsA-lux); experiment: Whole cell biosensor reporter assay, PA14 mCTX::PpqsA-lux; details: Pseudomonas aeruginosa, PA14, read-out: PA14 Remaining Activity %
Method: as §1, §2

PA14 biofilms = experiment: Biofilm assay on glass coverslips, GFP-labelled PA14; details: Ia 8 µM; tobramycin 100 µg/mL for 4 h
Method: (§3) One of the clinical challenges of P. aeruginosa infections is the difficulty associated with the effective treatment of biofilms due to their high resistance to antibiotics. […] The effect of Ia, with or without tobramycin, on PA14 and PAO1-L biofilms grown on glass coverslips, was determined. […] The experiment was performed using green fluorescent labelled (GFP)-labelled PAO1-L and PA14 strains, grown under four different conditions: (i) no treatment (control); (ii) compound Ia at 8 µM in PA14 and 34 µM in PAO1-L (concentrations equal to 3× IC50); (iii) tobramycin at 100 µg/mL; (iv) Ia and tobramycin, at the same concentrations as (ii) and (iii).
(§4) Biofilms were cultivated on borosilicate glass coverslips in petri dishes. P. aeruginosa strains, PAO1-L and PA14, were labelled by transformation with plasmid pMMG, which constitutively expresses GFP from the Ptac promoter. Labelled strains were grown at 37 °C, for 16 h, in 2 mL RPMI-1640 (Lonza, Slough, UK), supplemented with 20 mM D-glucose (Sigma–Aldrich, Dorset, UK) and 2 µM FeCl3 (Sigma–Aldrich, Dorset, UK). Cultures were diluted 1:100 in fresh medium and allowed to grow for a further 4 h, or until an OD600 of 0.5 was reached. The mid-logarithmic cultures were diluted to an OD600 of 0.01 in 25 mL RPMI, supplemented with glucose and FeCl3, and inoculated into petri dishes containing UV sterilised borosilicate glass coverslips (22 × 22 mm, thickness no1) (VWR, Lutterworth, UK). Bacterial cells were seeded at 37 °C under static conditions for 1.5 h, and compound Ia was added to the culture at a concentration of 34 µM for P. aeruginosa PAO1-L and 8 µM for PA14 before dishes were moved to a shaker at 60 rpm and 37 °C for 15 h to form mature biofilms. Tobramycin and propidium iodide were added to the 15 h-old cultures at concentrations of 100 µg/mL and 2 µM, respectively, followed by further incubation for 4 h. Coverslips were examined under a Laser Scanning Fluorescent Microscope (LSM2, Zeiss, Oberkochen, Germany). Biofilms were visualised using egfp mode at an excitation wavelength of 488nm. Imaging was carried out using Zen 2011 imaging software (Zeiss, Oberkochen, Germany). A total of 5 Z-stacked images were collected per coverslip. Sampling was conducted at random from the central portion of each coverslip. Biomass was calculated using Image J (NIH, Bethesda, MD, USA) and Comstat 2.1. Software package (www.comstat.dk, lyngby, Denmark).

PAO1-L biofilms = experiment: Biofilm assay on glass coverslips, GFP-labelled PAO1-L; details: Ia 34 µM; tobramycin 100 µg/mL for 4 h
Method: as §3, §4

Compound | activity at 10 µM [1] | activity at 10 µM [2] | other results
CC(=O)N1N=C(c2ccc(Br)cc2)CC1c1cccc(Nc2ccnc3cc(Cl)ccc23)c1 (stereo not shown) [IIg] | 63.7 ± 5.01% | 109 ± 2.79% | 
COc1ccc(C2=NN(C(C)=O)C(c3cccc(Nc4ccnc5cc(Cl)ccc45)c3)C2)cc1 (stereo not shown) [IIc] | 120 ± 8.28% | 115 ± 2.13% | 
COc1ccc(C2=NN(C(C)=O)C(c3cccc(Nc4ccnc5cc(C(F)(F)F)ccc45)c3)C2)cc1 (stereo not shown) [IIk] | 66.7 ± 0.42% | 118 ± 5.97% | 
CC(=O)N1N=C(c2ccc3c(c2)OCO3)CC1c1cccc(Nc2ccnc3cc(Cl)ccc23)c1 (stereo not shown) [IIh] | 65.8 ± 5.63% | 115 ± 6.02% | 
CC(=O)N1N=C(c2ccc(F)cc2)CC1c1cccc(Nc2ccnc3cc(C(F)(F)F)ccc23)c1 (stereo not shown) [IIm] | 90.2 ± 4.4% | 99.9 ± 3.17% | 
Cc1ccc(C2=NN(C=O)C(c3cccc(Nc4ccnc5cc(C(F)(F)F)ccc45)c3)C2)cc1 (stereo not shown) [Ij] | 93.7 ± 6.15% | 84.9 ± 8.17% | 
COc1cc(C2=NN(C=O)C(c3cccc(Nc4ccnc5cc(Cl)ccc45)c3)C2)cc(OC)c1OC (stereo not shown) [Id] | 130 ± 5.04% | 110 ± 15% | 
O=CN1N=C(c2ccc(Br)cc2)CC1c1cccc(Nc2ccnc3cc(C(F)(F)F)ccc23)c1 (stereo not shown) [Io] | 68.5 ± 3.43% | 80.6 ± 6.26% | 
COc1cc(C2=NN(C=O)C(c3cccc(Nc4ccnc5cc(C(F)(F)F)ccc45)c3)C2)cc(OC)c1OC (stereo not shown) [Il] | 85.8 ± 2.39% | 106 ± 15.3% | 
COc1cc(C2=NN(C(C)=O)C(c3cccc(Nc4ccnc5cc(C(F)(F)F)ccc45)c3)C2)cc(OC)c1OC (stereo not shown) [IIl] | 86.1 ± 2.39% | 103 ± 4.84% | 
CC(=O)N1N=C(c2ccc3c(c2)OCO3)CC1c1cccc(Nc2ccnc3cc(C(F)(F)F)ccc23)c1 (stereo not shown) [IIp] | 71.6 ± 5.07% | 99.6 ± 4.09% | 
CC(=O)N1N=C(c2ccc(Cl)cc2)CC1c1cccc(Nc2ccnc3cc(C(F)(F)F)ccc23)c1 (stereo not shown) [IIn] | 97.8 ± 5.52% | 98.1 ± 11.4% | 
O=CN1N=C(c2ccc3c(c2)OCO3)CC1c1cccc(Nc2ccnc3cc(Cl)ccc23)c1 (stereo not shown) [Ih] | 49.9 ± 12% | 85.8 ± 9.42% | 
O=CN1N=C(c2ccc(Cl)cc2)CC1c1cccc(Nc2ccnc3cc(C(F)(F)F)ccc23)c1 (stereo not shown) [In] | 61.8 ± 3.97% | 93.6 ± 4.45% | 
CC(=O)N1N=C(c2ccc(Cl)cc2)CC1c1cccc(Nc2ccnc3cc(Cl)ccc23)c1 (stereo not shown) [IIf] | 90.2 ± 3.84% | 103 ± 4.91% | 
CC(=O)N1N=C(c2ccc(Br)cc2)CC1c1cccc(Nc2ccnc3cc(C(F)(F)F)ccc23)c1 (stereo not shown) [IIo] | 80.8 ± 5.06% | 95.6 ± 9.58% | 
CC(=O)N1N=C(c2ccc(C)cc2)CC1c1cccc(Nc2ccnc3cc(Cl)ccc23)c1 (stereo not shown) [IIb] | 59.5 ± 1.86% | 96.2 ± 4.34% | 
CC(=O)N1N=C(c2ccc(F)cc2)CC1c1cccc(Nc2ccnc3cc(Cl)ccc23)c1 (stereo not shown) [IIe] | 82.6 ± 22.7% | 120 ± 1.59% | 
CC(=O)N1N=C(c2ccc(C)cc2)CC1c1cccc(Nc2ccnc3cc(C(F)(F)F)ccc23)c1 (stereo not shown) [IIj] | 97.3 ± 6.46% | 108 ± 6.05% | 
O=CN1N=C(c2ccc(F)cc2)CC1c1cccc(Nc2ccnc3cc(C(F)(F)F)ccc23)c1 (stereo not shown) [Im] | 65.1 ± 4.89% | 74.9 ± 8.28% | 
COc1cc(C2=NN(C(C)=O)C(c3cccc(Nc4ccnc5cc(Cl)ccc45)c3)C2)cc(OC)c1OC (stereo not shown) [IId] | 127 ± 9.69% | 110 ± 1.6% | 
COc1ccc(C2=NN(C=O)C(c3cccc(Nc4ccnc5cc(C(F)(F)F)ccc45)c3)C2)cc1 (stereo not shown) [Ik] | 78.6 ± 5.75% | 99.7 ± 9.37% | 
O=CN1N=C(c2ccc3c(c2)OCO3)CC1c1cccc(Nc2ccnc3cc(C(F)(F)F)ccc23)c1 (stereo not shown) [Ip] | 84.3 ± 5.48% | 81.4 ± 9.36% | 
Cc1ccc(C2=NN(C=O)C(c3cccc(Nc4ccnc5cc(Cl)ccc45)c3)C2)cc1 (stereo not shown) [Ib] | 77 ± 2.25% | 78.4 ± 6.51% | 
O=CN1N=C(c2ccc(F)cc2)CC1c1cccc(Nc2ccnc3cc(Cl)ccc23)c1 (stereo not shown) [Ie] | 40.6 ± 3.71% | 70.4 ± 6.53% | 
O=CN1N=C(c2ccc(Br)cc2)CC1c1cccc(Nc2ccnc3cc(Cl)ccc23)c1 (stereo not shown) [Ig] | 88.1 ± 6.05% | 94.8 ± 8.91% | 
COc1ccc(C2=NN(C=O)C(c3cccc(Nc4ccnc5cc(Cl)ccc45)c3)C2)cc1 (stereo not shown) [Ic] | 100 ± 8.46% | 102 ± 11.7% | 
NC[C@H]1O[C@H](O[C@H]2[C@H](O)[C@@H](O[C@H]3O[C@H](CO)[C@@H](O)[C@H](N)[C@H]3O)[C@H](N)C[C@@H]2N)[C@H](N)C[C@@H]1O [tobramycin, reference compound] |  |  | Effect on biofilm biomass, PA14 (PA14 biofilms): significantly reduced biofilm biomass; Effect on cell viability in biofilm (propidium iodide), PA14 (PA14 biofilms): increasing the proportion of dead bacterial cells substantially; Effect on biofilm biomass, PAO1-L (PAO1-L biofilms): significantly reduced biofilm biomass; Effect on cell viability in biofilm (propidium iodide), PAO1-L (PAO1-L biofilms): increasing the proportion of dead bacterial cells substantially
